Article PMC11117716 (Biomolecules, 2024)

Legend:
[1] = Plasma pharmacokinetics after oral Posiphen in CD-1 mice (LC-MS/MS); conditions: for AUC(0-t) / Cmax / Tmax: po
Procedure: (§1) The animal PKs were taken from multiple GLP toxicology studies, biomarker studies, and efficacy studies. […] Sample size (n) represents the number of animals at each time point of sample collection. […] The dose volume was determined according to animals’ weight collected on the dosing day.
(§2) In mice, blood samples were collected via the saphenous vein or other suitable blood collection site into a microcentrifuge tube containing the anti-coagulant K2-EDTA on wet ice and processed for plasma. For samples collected within the first hour of dosing, ±1 min is acceptable, while for all other timepoints, samples were taken within 5% of the scheduled time and are not considered as protocol deviations. Plasma samples were centrifuged (3200× g for 10 min at 4 °C) within an hour of collection. CSF samples were collected with 3 μL volume per time point, frozen on dry ice, and stored at −60 °C for further analysis. For brain collection in mice, animals were euthanized using CO2 inhalation. Whole brain was collected, washed in cold saline, dried, and homogenized immediately […]. Homogenizing buffer MeOH/15 mM PBS (1:2, v:v) was used at a ratio of 1:9 (1 g of tissue with 9 mL of buffer; the dilution ratio is 10).
(§3) In humans, the bioanalytical method was performed in accordance with current FDA, Industry Guidelines, and OECD Principles. […] The sample analysis was conducted in accordance with current GCP and GLP principles, and the results were presented for pharmacokinetic profiling (Absorption Systems, Exton, PA, USA). Calibration ranges for each analyte ranged from 1000 ng/mL to 1 ng/mL (or ng/g for brain) in plasma, brain, and CSF matrices. The detection limit was 0.025 ng/mL. The following PK parameters were collected for the purpose of this manuscript: maximum concentration (Cmax), time to maximum drug concentration (Tmax), half-life (T1/2), and the Area Under the Curve (AUC).
Blood plasma samples were collected at various time points within the initial 8 h following administration (6 h for humans). Plasma concentrations (ng/mL) were measured over the 8 h observation window to characterize the maximum concentration (Cmax), the time to peak drug concentration (Tmax), the half-life (T1/2), and the Area Under the Curve (AUC).

[2] = Plasma pharmacokinetics after oral Posiphen in humans (LC-MS/MS); assay type: in vivo, human; conditions: human, in vivo, po; for AUC(0-t): read-out: AUC (0-t)
Procedure: This paper describes data from multiple studies.
Samples were frozen and then stored at −80 °C.
(§4) The detection limit was 0.025 ng/mL.

[3] = in vivo
Procedure: as §1, §2, §3

[4] = clinical; conditions: human, in vivo; for Kp: 80 mg/day; for AUC(0-t) / Cmax: po
Procedure: This paper describes data from multiple studies. The healthy volunteers’ data come from the single ascending and multiple ascending dose study, whereas Alzheimer’s and Parkinson’s patients are represented by the MCI NCT01072812 study, ADCS NCT02925650 study, and AD/PD NCT04524351 study. The evaluations are based on a sample size of n = 4 for each time point.
In humans, plasma and lumbar CSF samples were collected via an indwelling catheter over 12 h (at 0, 1, 1.5, 2, 3, 4, 6, 8, and 12 h) initiated at the same time of day, 1 day prior to the start of dosing, to obtain time-dependent baseline control data, and then at the exact same times immediately after the last dose was administered. Samples were frozen and then stored at −80 °C.
as §3

[5] = system: acetylcholinesterase; conditions: cited from earlier work
[6] = system: neurotoxic aggregating proteins; conditions: cited from earlier work
[7] = Plasma pharmacokinetics after oral Posiphen in Beagle dogs (LC-MS/MS); design: species or system dog; conditions: dog plasma
Procedure: In rats and dogs, blood samples were centrifuged, and the resultant plasma was separated, and 200 µL (rat) or 400 µL (dog) of plasma was transferred to uniquely labeled pre-chilled polypropylene tubes containing 5 µL (rat) or 10 µL (dog) Dichlorvos spiking solution (nominal concentration of 0.82 mg/mL in MeOH/Water, 20/80, v/v).
as §4

[8] = both, CD-1, mouse, in vivo, 65 mg/kg
[9] = CD-1, mouse, in vivo, po, 65 mg/kg, Cmax, Table 2, mouse CSF, oral Posiphen

Structure (SMILES)	concentration at 0.25 h [1, 8]	concentration at 0.5 h [1, 8]	concentration at 1 h [1, 8]	concentration at 1.25 h [1, 8]	concentration at 1.5 h [1, 8]	concentration at 2 h [1, 8]	concentration at 4 h [1, 8]	concentration at 12 h [1, 8]	AUC(0-t) [1, 8]	Cmax [1, 8]	Tmax [1, 8]	Cmax [2]	AUC(0-t) [2]	Cmax [3, 9]	Cmax ([3]; CD-1, mouse, po, 65 mg/kg)	Kp [4]	AUC(0-t) [4]	Cmax [4]	Acetylcholinesterase inhibitory (AChEI) activity [5]	TINAP activity [6]	other results
CN1CC[C@]2(C)c3cc(OC(=O)Nc4ccccc4)ccc3NC12 (stereo partly shown) [N8, N8-norposiphen]	882 ng/mL	1310 ng/mL	1560 ng/mL	1790 ng/mL	1930 ng/mL	1830 ng/mL	478 ng/mL	0 ng/mL	5330 ng·h/mL	1930 ng/mL	1.5 h	30.4 ng/mL	260 ng·h/mL	309 ng/mL	7290 ng/mL	0.17	54.9 ng·h/mL	5.08 ng/mL	no acetylcholinesterase inhibitory (AChEI) activity	have TINAP	Plasma level relative to N1 ([1]; mouse plasma): 3.8 times; half-life [4]: > 12 h
CN1c2ccc(OC(=O)Nc3ccccc3)cc2[C@@]2(C)CCNC12 (stereo partly shown) [N1, N1-norposiphen]	350 ng/mL	484 ng/mL	446 ng/mL	554 ng/mL	525 ng/mL	419 ng/mL	83.6 ng/mL	0 ng/mL	1400 ng·h/mL	554 ng/mL	1.25 h	24.9 ng/mL	213 ng·h/mL	54.5 ng/mL	1850 ng/mL	0.1	26.7 ng·h/mL	2.56 ng/mL	has both TINAP and AChEI activities	has both TINAP and AChEI activities	concentration at 8 h [1, 8]: 3.64 ng/mL; Plasma level relative to N8 ([1]; mouse plasma): a fourth; Plasma level relative to Posiphen ([1]; mouse plasma): half; Primary compound in plasma [7]: primary compound; Cmax ([3]; Table 2, mouse CSF, oral Posiphen): 54.4 ng/mL
C[C@]12CCNC1Nc1ccc(OC(=O)Nc3ccccc3)cc12 (stereo partly shown) [N1, N8, N1,N8-norposiphen]												3.66 ng/mL	36.9 ng·h/mL								
